One series has as its system U251. The following applies: for IC50: 72 h; for concentration at which in vitro anti-tumor activity was exhibited: U251 tumor cells, CCK-8.
A further series concerns U87 MG. The following applies: for IC50: 72 h; for concentration at which in vitro anti-tumor activity was exhibited: U87 MG tumor cells, CCK-8.
A further series relates to HCT116 p53^+/+. The following applies: 72 h.
A short description of series [1]: Circular dichroism, degree of helicity. Conditions: CD, PB pH 7.2, 10–50 mmol/L peptide, ambient temperature, 1-mm path length, 185–255 nm. Type of series: physicochemical. As to the method: The staple peptides were soluble in PB with a pH of 7.2 at a concentration of 10–50 mmol/L. CD experiments were performed using a Jasco J-715 Spectropolarimeter at ambient temperature. A quartz cuvette with a 1-mm path length was used for the spectrum collection (wavelength, 185–255 nm; step resolution, 0.0001 mm; speed, 1.2 μm/h; accumulations, 6; and bandwidth, 0.0001 mm). We calculated the helicity of each peptide using Eq.
Background: Circular dichroism is widely used to follow secondary structure.

The test system of a further series is tumor cells. Description: Cytotoxicity / cell viability assay (CCK-8), cell line not given. In kind it is cell-based, human. The following applies: for concentration at which in vitro anti-tumor activity was exhibited: compared to linear peptide M3-1, cell line not named; for anti-proliferative / tumor suppressive activity (in words): HCT116 p53^+/+, HCT116 p53−/−, U87 and U251 cell viability experiments, versus template straight-chain peptide. The method, then:
Human colon cancer cell lines HCT116 p53^+/+, HCT116 p53^−/−, U87 MG, and U251 were maintained in McCoy’s 5A Medium supplemented with 10% heat-inactivated FCS and 1% penicillin–streptomycin at 37°C, 5% CO2, and under complete humidification conditions. The cells (3×10^3 cells/well) were inoculated in 96-well plates and treated with different concentrations of polypeptides for 72 h. The absorbance at 450 nm was then measured using the CCK-8 Kit, and the percentage of cell survival was calculated based on the ratio of the sample well to the reference well A450.

For a further series, the system named is HCT116 p53^−/−. The following applies: 72 h.
A further series in a line: circular dichroism. Conditions: phosphate buffer (PB); pH 7.2; ns °C; 10-50 (printed mmol/L, probably uM).

This is an account of results in PMC11190158, “Study on the design, synthesis, and activity of anti-tumor staple peptides targeting MDM2/MDMX” (Frontiers in Chemistry, 2024).

Positions of bridges follow the written chain, without caps; N, C: chain ends. Non-standard residues stand in square brackets, D forms with d. Residues, ends and D or L forms follow the SMILES beside them. R8 = C=CCCCCCC[C@@](C)(N)C(=O)O; S5 = C=CCCC[C@](C)(N)C(=O)O

In the case of `CC(=O)N[C@@H](CCCCN)C(=O)N[C@@H](CC(C)C)C(=O)N[C@H](C(=O)N[C@@H](Cc1ccccc1)C(=O)N[C@]1(C)CCCCCCC=CCCC[C@@](C)(C(=O)N[C@@H](CCC(N)=O)C(=O)N[C@@H](CCCCN)C(N)=O)NC(=O)[C@H](CC(C)C)NC(=O)[C@H](CCC(N)=O)NC(=O)[C@H](C)NC(=O)[C@H](Cc2c[nH]c3ccccc23)NC(=O)[C@H](Cc2ccc(O)cc2)NC(=O)[C@H](CCC(=O)O)NC1=O)[C@@H](C)O` [SM3-8] (Ac-KLTF[R8]EYWAQL[S5]QK-NH2; staple 5-12), the IC50 – broadly, the concentration that gives 50% inhibition – turned out to be 94.2 µM in the series with U251, 45 µM with U87 MG, 17.6 µM in the series on HCT116 p53^+/+ and 17.9 µM in the series on HCT116 p53^−/−. Further, the “concentration at which in vitro anti-tumor activity was exhibited” value (“concentration at which” below) worked out at 100 µM with U251, 50 µM in the series with U87 MG and 25 µM with tumor cells. This compound registered a helicity in series [1] of 52.02%.

Ac-KLTFLEYWAQLMQK-NH2: the helicity in the series “circular dichroism” amounted to 0.54%.

On to `CSCC[C@H](NC(=O)[C@H](CC(C)C)NC(=O)[C@H](CCC(N)=O)NC(=O)[C@H](C)NC(=O)[C@H](Cc1c[nH]c2ccccc12)NC(=O)[C@H](Cc1ccc(O)cc1)NC(=O)[C@]1(C)CCCC=CCCC[C@](C)(NC(=O)[C@H](CCCCN)NC(C)=O)C(=O)N[C@@H]([C@@H](C)O)C(=O)N[C@@H](Cc2ccccc2)C(=O)N[C@@H](CC(C)C)C(=O)N1)C(=O)N[C@@H](CCC(N)=O)C(=O)N[C@@H](CCCCN)C(N)=O` [SM3-1] (Ac-K[S5]TFL[S5]YWAQLMQK-NH2; staple 2-6), for which the IC50 was found to be 22.6 µM with U251, 19 µM in the series on U87 MG, 118 µM in the series with HCT116 p53^+/+ and 54.8 µM with HCT116 p53^−/−. Also, the figures for the “concentration at which” value in the series with U251, with U87 MG and with tumor cells were 50 µM, 25 µM and 25 µM, respectively. The values for the helicity (in series [1]; in the series “circular dichroism”) were 42.36% and 42.4%, respectively.

In the case of `CSCC[C@H](NC(=O)[C@H](CC(C)C)NC(=O)[C@H](CCC(N)=O)NC(=O)[C@]1(C)CCCC=CCCC[C@](C)(NC(=O)[C@H](Cc2ccccc2)NC(=O)[C@@H](NC(=O)[C@H](CC(C)C)NC(=O)[C@H](CCCCN)NC(C)=O)[C@@H](C)O)C(=O)N[C@@H](CCC(=O)O)C(=O)N[C@@H](Cc2ccc(O)cc2)C(=O)N[C@@H](Cc2c[nH]c3ccccc23)C(=O)N1)C(=O)N[C@@H](CCC(N)=O)C(=O)N[C@@H](CCCCN)C(N)=O` [SM3-3] (Ac-KLTF[S5]EYW[S5]QLMQK-NH2; staple 5-9), the IC50 with U251 amounted to 93 µM; with U87 MG, 47.5 µM; with HCT116 p53^+/+ it was 15.6 µM; in the series with HCT116 p53^−/− it was 25.8 µM. For the same compound, the “concentration at which” value in the series on U251 came to 100 µM; in the series on U87 MG, 50 µM; in the series with tumor cells it was 25 µM. In addition, the values for the helicity (in series [1]; in the series “circular dichroism”) were 38.10% and 38.1%, respectively.

As to `CSCC[C@H](NC(=O)[C@H](CC(C)C)NC(=O)[C@H](CCC(N)=O)NC(=O)[C@H](C)NC(=O)[C@H](Cc1c[nH]c2ccccc12)NC(=O)[C@]1(C)CCCC=CCCC[C@](C)(NC(=O)[C@H](CC(C)C)NC(=O)[C@H](CCCCN)NC(C)=O)C(=O)N[C@@H](Cc2ccccc2)C(=O)N[C@@H](CC(C)C)C(=O)N[C@@H](CCC(=O)O)C(=O)N1)C(=O)N[C@@H](CCC(N)=O)C(=O)N[C@@H](CCCCN)C(N)=O` [SM3-2] (Ac-KL[S5]FLE[S5]WAQLMQK-NH2; staple 3-7), the IC50 amounted to 48.7 µM in the series with U251, 30.7 µM in the series on U87 MG, 34.4 µM in the series with HCT116 p53^+/+ and 24 µM with HCT116 p53^−/−. For the same compound, the “concentration at which” value amounted to 50 µM in the series with U251, 25 µM in the series on U87 MG and 25 µM with tumor cells. Also, the helicity (in series [1]; in “circular dichroism”) was 5.85% each time. The “anti-proliferative / tumor suppressive activity (in words)” value in the series on tumor cells was “significantly improved”.

On to `CSCC[C@@H]1NC(=O)[C@H](CC(C)C)NC(=O)[C@H](CCC(N)=O)NC(=O)[C@@](C)(NC(=O)[C@H](Cc2c[nH]c3ccccc23)NC(=O)[C@H](Cc2ccc(O)cc2)NC(=O)[C@H](CCC(=O)O)NC(=O)[C@H](CC(C)C)NC(=O)[C@H](Cc2ccccc2)NC(=O)[C@@H](NC(=O)[C@H](CC(C)C)NC(=O)[C@H](CCCCN)NC(C)=O)[C@@H](C)O)CCCC=CCCC[C@@](C)(C(=O)N[C@@H](CCCCN)C(N)=O)NC1=O` [SM3-5] (Ac-KLTFLEYW[S5]QLM[S5]K-NH2; staple 9-13), for which the IC50 in the series on U251 turned out to be 35.9 µM; in the series on U87 MG, 31.2 µM; in the series on HCT116 p53^+/+, 27.3 µM; in the series with HCT116 p53^−/−, 27.4 µM. In addition, the “concentration at which” value in the series with U251 amounted to 50 µM; in the series on U87 MG, 25 µM; in the series with tumor cells it was 25 µM. Also, the helicity in series [1] is 42.85%; in the series “circular dichroism”, 42.9%. Moreover, the “anti-proliferative / tumor suppressive activity (in words)” value with tumor cells is “significantly improved”.
